Values of other authors, collected in patent US7718385B2, “Bioactivation of alkylating agents for cancer treatment” (priority 2003, dated 2010).

What was measured:
NCI-H460 = conditions: NCI-H460, Non-Small Cell Lung; cited from earlier work
HL-60(TB) = conditions: cited from earlier work
MOLT-4 = conditions: MOLT-4, Leukemia, cited from earlier work
EKVX = conditions: cited from earlier work
HOP-92 = conditions: HOP-92, Non-Small Cell Lung, cited from earlier work
NCI-H226 = conditions: NCI-H226, Non-Small Cell Lung, cited from earlier work
HCT-15 = conditions: HCT-15, Colon, cited from earlier work
SW-620 = conditions: SW-620, Colon, cited from earlier work
U251 = conditions: U251, Central Nervous System, cited from earlier work
LOX IMVI = conditions: cited from earlier work
M14 = conditions: M14, Melanoma, cited from earlier work
UACC-257 = conditions: UACC-257, Melanoma, cited from earlier work
IGROVI = conditions: cited from earlier work
786-0 = conditions: 786-0, Renal, cited from earlier work
TK-10 = conditions: TK-10, Renal, cited from earlier work
PC-3 = conditions: PC-3, Prostate, cited from earlier work
MDA-MB 435 = conditions: MDA-MB 435, Breast, cited from earlier work
T-47D = conditions: cited from earlier work

For CC1=C(CO)C2=C(C)C3(CC3)[C@@](C)(O)C(=O)C2=C1 [Irofulven, 6-hydroxymethylacylfulvene], the GI50 (NCI-H460) is given as 50.1 nM, the TGI (NCI-H460) is given as 2.51E−07 and the “log(GI50)” value (NCI-H460) is given as −7.3. For the same compound, the “log(TGI)” value (NCI-H460) was −6.6, the GI50 (HL-60(TB); Leukemia) was 251 nM and the TGI (HL-60(TB); Leukemia) was 2.00E−06. For the same compound, the “log(GI50)” value (HL-60(TB); Leukemia) was −6.6, the “log(TGI)” value (HL-60(TB); Leukemia) was −5.7 and the CC50 (HL-60(TB); read-out: LC50, Leukemia) was ≥ 100000 nM. The GI50 (MOLT-4) was 794 nM, the TGI (MOLT-4) was 2.00E−05 and the “log(GI50)” value (MOLT-4) was −6.1. The “log(TGI)” value (MOLT-4) was −4.7, the CC50 (MOLT-4; read-out: LC50) was ≥ 100000 nM and the GI50 (EKVX; Non-Small Cell Lung) was 200 nM. The TGI (EKVX; Non-Small Cell Lung) was 5.01E−07, the “log(GI50)” value (EKVX; Non-Small Cell Lung) was −6.7 and the “log(LC50)” value (EKVX; Non-Small Cell Lung) was −5.4. For the same compound, the “log(TGI)” value (EKVX; Non-Small Cell Lung) was −6.3, the CC50 (EKVX; read-out: LC50, Non-Small Cell Lung) was 3980 nM and the GI50 (HOP-92) was 316 nM. The TGI (HOP-92) was 6.31E−07, the “log(GI50)” value (HOP-92) was −6.5 and the “log(LC50)” value (HOP-92) was −4.6. The “log(TGI)” value (HOP-92) was −6.2, the CC50 (HOP-92; read-out: LC50) was 25100 nM and the GI50 (NCI-H226) was 200 nM. For the same compound, the TGI (NCI-H226) was 5.01E−07, the “log(GI50)” value (NCI-H226) was −6.7 and the “log(LC50)” value (NCI-H226) was −5.2. The “log(TGI)” value (NCI-H226) was −6.3, the CC50 (NCI-H226; read-out: LC50) was 6310 nM and the GI50 (HCT-15) was 316 nM. The TGI (HCT-15) was 5.01E−06, the “log(GI50)” value (HCT-15) was −6.5 and the “log(TGI)” value (HCT-15) was −5.3. For the same compound, the CC50 (HCT-15; read-out: LC50) was ≥ 100000 nM, the GI50 (SW-620) was 631 nM and the TGI (SW-620) was 3.16E−05. For the same compound, the “log(GI50)” value (SW-620) was −6.2, the “log(TGI)” value (SW-620) was −4.5 and the CC50 (SW-620; read-out: LC50) was ≥ 100000 nM. The GI50 (U251) was 316 nM, the TGI (U251) was 6.31E−06 and the “log(GI50)” value (U251) was −6.5. For the same compound, the “log(LC50)” value (U251) was −4.3, the “log(TGI)” value (U251) was −5.2 and the CC50 (U251; read-out: LC50) was 50100 nM. The GI50 (LOX IMVI; Melanoma) was 631 nM, the TGI (LOX IMVI; Melanoma) was 3.16E−06 and the “log(GI50)” value (LOX IMVI; Melanoma) was −6.2. For the same compound, the “log(LC50)” value (LOX IMVI; Melanoma) was −4.4, the “log(TGI)” value (LOX IMVI; Melanoma) was −5.5 and the CC50 (LOX IMVI; read-out: LC50, Melanoma) was 39800 nM. For the same compound, the GI50 (M14) was 251 nM, the TGI (M14) was 6.31E−07 and the “log(GI50)” value (M14) was −6.6. The “log(LC50)” value (M14) was −5.7, the “log(TGI)” value (M14) was −6.2 and the CC50 (M14; read-out: LC50) was 2000 nM. For the same compound, the GI50 (UACC-257) was 251 nM, the TGI (UACC-257) was 5.01E−07 and the “log(GI50)” value (UACC-257) was −6.6. For the same compound, the “log(LC50)” value (UACC-257) was −5.3, the “log(TGI)” value (UACC-257) was −6.3 and the CC50 (UACC-257; read-out: LC50) was 5010 nM. The GI50 (IGROVI; Ovarian) was 158 nM, the TGI (IGROVI; Ovarian) was 5.01E−07 and the “log(GI50)” value (IGROVI; Ovarian) was −6.8. The “log(LC50)” value (IGROVI; Ovarian) was −5.2, the “log(TGI)” value (IGROVI; Ovarian) was −6.3 and the CC50 (IGROVI; read-out: LC50, Ovarian) was 6310 nM. For the same compound, the GI50 (786-0) was 200 nM, the TGI (786-0) was 5.01E−07 and the “log(GI50)” value (786-0) was −6.7. The “log(LC50)” value (786-0) was −5.7, the “log(TGI)” value (786-0) was −6.3 and the CC50 (786-0; read-out: LC50) was 2000 nM. For the same compound, the GI50 (TK-10) was 251 nM, the TGI (TK-10) was 1.26E−06 and the “log(GI50)” value (TK-10) was −6.6. The “log(TGI)” value (TK-10) was −5.9, the CC50 (TK-10; read-out: LC50) was ≥ 100000 nM and the GI50 (PC-3) was 251 nM. The TGI (PC-3) was 1.26E−06, the “log(GI50)” value (PC-3) was −6.6 and the “log(LC50)” value (PC-3) was −4.5. For the same compound, the “log(TGI)” value (PC-3) was −5.9, the CC50 (PC-3; read-out: LC50) was 31600 nM and the GI50 (MDA-MB 435) was 1580 nM. For the same compound, the TGI (MDA-MB 435) was 6.31E−06, the “log(GI50)” value (MDA-MB 435) was −5.8 and the “log(LC50)” value (MDA-MB 435) was −4.4. For the same compound, the “log(TGI)” value (MDA-MB 435) was −5.2, the CC50 (MDA-MB 435; read-out: LC50) was 39800 nM and the GI50 (T-47D; Breast) was 200 nM. For the same compound, the TGI (T-47D; Breast) was 2.51E−06, the “log(GI50)” value (T-47D; Breast) was −6.7 and the “log(TGI)” value (T-47D; Breast) was −5.6. For the same compound, the CC50 (T-47D; read-out: LC50, Breast) was ≥ 100000 nM.
